Among the test systems are CAKI-1 renal; IGROV1 ovarian; K-562 leukemia; MCF7 breast; NCI-H226 lung; RXF 393 renal; SF-268 CNS; SK-MEL-2 melanoma; SNB-19 CNS; UACC-257 melanoma.
Assay in all cases: growth of human tumour cells (NCI), 48 h

Molecules are shown by their SMILES.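 Five concentrations, 48 hours, 96-well plates. The concentration for 50% growth inhibition is given as GI50. TGI marks complete inhibition of growth.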

On to `COc1cnc2c(c1)C(=O)c1c-2n(CCCN2CCN(C)CC2)c(=O)c2cc(Cl)ccc12`, for which the GI50 with CAKI-1 renal was 2.97 µM; with IGROV1 ovarian, 10.4 µM; in the assay on K-562 leukemia it was 1.19 µM; in the assay with MCF7 breast it was 0.487 µM; in the assay with NCI-H226 lung, 12.3 µM; in the assay on RXF 393 renal it was 1.9 µM. Further, the GI50 in the assay with SF-268 CNS was 4.75 µM; in the assay on SK-MEL-2 melanoma, 5.29 µM; in the assay on SNB-19 CNS, 13.8 µM; in the assay on UACC-257 melanoma it was 4.04 µM. For the same molecule, the TGI was determined as 18.4 µM with CAKI-1 renal; 87.1 µM in the assay with IGROV1 ovarian; 3.51 µM in the assay on K-562 leukemia; 21.7 µM with MCF7 breast; 36.2 µM in the assay on NCI-H226 lung; 13.3 µM with RXF 393 renal. Moreover, the TGI was 29.1 µM with SF-268 CNS, 23.2 µM in the assay on SK-MEL-2 melanoma, 78.9 µM in the assay with SNB-19 CNS and 22.3 µM in the assay with UACC-257 melanoma.
Take `CC(C)=CCC/C(C)=C/CC/C(=C/COP(=O)(OCc1ccc([N+](=O)[O-])o1)N(C)CCCCCl)C(C)(C)C` (configuration not stated): the GI50 in the assay with CAKI-1 renal is 5.78 µM; in the assay with IGROV1 ovarian it was 6.29 µM; in the assay on K-562 leukemia, 6.22 µM; in the assay with MCF7 breast, 2.47 µM; in the assay with RXF 393 renal, 7.84 µM; with SF-268 CNS it was 3.69 µM. Further, the GI50 is 2.73 µM with SK-MEL-2 melanoma, 15.8 µM with SNB-19 CNS and 10.8 µM in the assay on UACC-257 melanoma. Moreover, the TGI was 22 µM in the assay on CAKI-1 renal; 22.5 µM in the assay on IGROV1 ovarian; greater than 100 µM in the assay on K-562 leukemia; 18.6 µM with MCF7 breast; 26.5 µM in the assay on RXF 393 renal; 19.3 µM with SF-268 CNS. Further, the values for the TGI in the assay on SK-MEL-2 melanoma, in the assay on SNB-19 CNS and with UACC-257 melanoma were 11.4 µM, 33.6 µM and 27.6 µM, respectively.
Regarding `COC1CC2CCC(C)[C@](O)(O2)C(=O)C(=O)N2CCCCC2C(=O)OC(C(C)CC2CCC(O)C(OC)C2)CC(=O)C(C)C=C(C)C(OC(=O)CN(C)C)C(OC)C(=O)C(C)CC(C)/C=C/C=C/C=C\1C` (some centres not stated), the TGI in the assay on IGROV1 ovarian was 9.88 µM; in the assay with K-562 leukemia it was 13.6 µM; in the assay on MCF7 breast, 17.6 µM; in the assay with NCI-H226 lung, 22.3 µM; in the assay on RXF 393 renal, 15.5 µM; with SF-268 CNS it was 14.8 µM. Further, the TGI was determined as 15.1 µM in the assay with SK-MEL-2 melanoma, 15.9 µM in the assay on SNB-19 CNS and 24.1 µM in the assay with UACC-257 melanoma.
For `Cc1cc(C)nc(SC2=C(Nc3cccc(Cl)c3)C(=O)N(Cc3ccccc3)C2=O)n1`, the GI50 was greater than 170 µM in the assay on CAKI-1 renal; greater than 170 µM in the assay with IGROV1 ovarian; 5.25 µM in the assay with K-562 leukemia; greater than 170 µM with MCF7 breast; 0.729 µM in the assay with NCI-H226 lung; greater than 170 µM in the assay on SF-268 CNS. Further, the GI50 in the assay on SK-MEL-2 melanoma, in the assay with SNB-19 CNS and in the assay with UACC-257 melanoma was greater than 170 µM each time. The TGI in the assay with CAKI-1 renal was greater than 170 µM; in the assay with IGROV1 ovarian it was greater than 170 µM; in the assay on K-562 leukemia, greater than 170 µM; with MCF7 breast, greater than 170 µM; in the assay on NCI-H226 lung, 9.43 µM; in the assay with SF-268 CNS, greater than 170 µM. Besides, the TGI in the assay on SK-MEL-2 melanoma, with SNB-19 CNS and in the assay on UACC-257 melanoma was greater than 170 µM throughout.
For the molecule `C/C(=C\c1ccn(-c2ccc(N)cc2)n1)[C@@H]1C[C@@H]2O[C@]2(C)CCC[C@H](C)[C@H](O)[C@@H](C)C(=O)C(C)(C)[C@@H](O)CC(=O)O1`, the GI50 in the assay on CAKI-1 renal is 0.202 µM; with IGROV1 ovarian it was 0.494 µM; in the assay on K-562 leukemia, 0.0248 µM; with MCF7 breast, 0.0152 µM; in the assay on NCI-H226 lung it was greater than 50 µM; in the assay on RXF 393 renal, 0.0478 µM. In addition, the GI50 in the assay with SF-268 CNS was 0.118 µM; in the assay on SK-MEL-2 melanoma, 0.0758 µM; with SNB-19 CNS, 0.29 µM. Besides, the TGI in the assay with CAKI-1 renal is greater than 50 µM; with IGROV1 ovarian, greater than 50 µM; with K-562 leukemia, greater than 50 µM; in the assay on MCF7 breast it was greater than 50 µM; in the assay on NCI-H226 lung, greater than 50 µM; in the assay with RXF 393 renal it was 0.406 µM. The TGI with SF-268 CNS, with SK-MEL-2 melanoma and with SNB-19 CNS was greater than 50 µM in each case.
Consider `C=CCN(N=O)C(=O)N(CCC)CCCCC(NC(C)=O)C(=O)NCc1ccccc1` (configuration not stated), for which the TGI with CAKI-1 renal, with IGROV1 ovarian, in the assay with K-562 leukemia, in the assay on NCI-H226 lung, with RXF 393 renal and in the assay on SF-268 CNS was greater than 100 µM each time. The TGI in the assay on SK-MEL-2 melanoma, in the assay on SNB-19 CNS and in the assay on UACC-257 melanoma was greater than 100 µM throughout.
Take `Cc1ccc2sc3c(NCCCNCCO)nc4ccccc4c3c(=O)c2c1`: the GI50 in the assay on CAKI-1 renal is 1.43 µM; in the assay on IGROV1 ovarian, 1.59 µM; with K-562 leukemia, 1.36 µM; in the assay with MCF7 breast, 1.61 µM; with NCI-H226 lung, 1.78 µM; in the assay with RXF 393 renal it was 1.5 µM. In addition, the GI50 in the assay with SF-268 CNS was 1.57 µM; in the assay on SK-MEL-2 melanoma it was 1.73 µM; in the assay with UACC-257 melanoma, 1.87 µM. In addition, the TGI was found to be 2.82 µM with CAKI-1 renal; 3.14 µM in the assay on IGROV1 ovarian; 3.72 µM in the assay on K-562 leukemia; 3.17 µM in the assay with MCF7 breast; 3.68 µM in the assay with NCI-H226 lung; 2.88 µM with RXF 393 renal. Moreover, the TGI in the assay with SF-268 CNS was found to be 3.2 µM; in the assay with SK-MEL-2 melanoma, 3.36 µM; in the assay with UACC-257 melanoma it was 3.76 µM.
As to `CCOC(=O)/C=C1\Nc2ccccc2-n2nnnc21`, the TGI with CAKI-1 renal, with IGROV1 ovarian, in the assay with K-562 leukemia, in the assay on NCI-H226 lung, in the assay with RXF 393 renal and in the assay with SF-268 CNS was greater than 100 µM throughout. For the same molecule, the TGI with SK-MEL-2 melanoma, in the assay with SNB-19 CNS and in the assay with UACC-257 melanoma was greater than 100 µM in each case.
Regarding `O=C(Cn1ccnc1[N+](=O)[O-])NCC(F)(F)C(F)(F)F`, the GI50 in the assay on CAKI-1 renal, in the assay with IGROV1 ovarian, in the assay with MCF7 breast, with NCI-H226 lung, in the assay on RXF 393 renal and with SF-268 CNS was greater than 100 µM throughout. Further, the GI50 with SK-MEL-2 melanoma, in the assay with SNB-19 CNS and in the assay with UACC-257 melanoma was greater than 100 µM throughout. The TGI in the assay on CAKI-1 renal, with IGROV1 ovarian, with MCF7 breast, in the assay on NCI-H226 lung, with RXF 393 renal and with SF-268 CNS was greater than 100 µM in each case. The TGI with SK-MEL-2 melanoma, in the assay with SNB-19 CNS and in the assay on UACC-257 melanoma was greater than 100 µM in each case.

The values are drawn from PubChem BioAssay (NCI).
